Test results published in patent publication US20250298027A1, “METHOD OF EVALUATING SMALL MOLECULE DISTRIBUTION USING TELLUROPHENE ANALOGUES” (THE GOVERNING COUNCIL OF THE UNIVERSITY OF TORONTO, priority 2022, published 2025).

How the values were obtained:
PANC-1 cells = experiment: alamarBlue viability assay in PANC-1 cells; type: cell-based, Human; conditions: maximum dose of 25 μM, 72 hours exposure
Protocol: Similarly, PANC1 cells were characterized for later in vivo experiments. Using an alamarBlue viability assay and a proliferative assay, PANC-1 cells were incubated with 1 or teniposide.
AlamarBlue assay: PANC-1 cells were seeded into black, clear-bottom 96-well assay plates (Corning; CLS3603) and incubated for 24 hours. The medium was replaced with […] of teniposide or compound 1. After 72 hours exposure to drug, alamarBlue (Thermo Fisher Scientific; DAL1100) cell viability reagent was added and incubated for 4 hours at 37° C. Fluorescence intensity was measured using an excitation wavelength of 560 nm and an emission of 590 nm. Cell viability was calculated by normalizing to an untreated control.

pH2AX^Ser139 = experiment: pH2AX Western blotting in PANC-1 cells; type: cell-based, Human; conditions: 1 μM, 24 and 48 hours
Protocol: Next, the ability of 1 to induce DSBs—the dominant type of DNA damage resulting from Top2 inhibition was investigated. In response to DSBs, a cascade of DNA repair mechanisms are triggered, including-phosphorylation of the histone variant H2AX at Ser139. Thus, the level of pH2AX^Ser139 serves as a reliable marker for Top2-linked DSBs. Western blotting was used to measure pH2AX^Ser139 in PANC-1 cells treated with 1 μM of either 1 or teniposide for 24 and 48 hours.
pH2AX Blotting: PANC-1 cells (0.5×10^6) cells were seeded in 60 mm plastic petri dishes (Corning Inc. NY) and incubated for 18 h. The spent medium is removed and replaced with fresh medium containing drug ([…]) and incubated for either 24 or 48h. Control cells were treated with DMSO only. The cells were then lysed with RIPA buffer (25 mM Tris·HCl PH 7.6, 150 mM NaCl, 1% NP-40, 1% sodium deoxycholate, 0.1% SDS) (ThermoFisher Scientific) containing Halt Protease Inhibitor Cocktail (Cat. No. 78410) and Halt Phosphatase Inhibitor Cocktail (Cat. No. 78420) as per manufacturer's protocol. […] Antibodies (Abcam, Cambridge, MA) targeting the following proteins were used H2AX (S139) (ab11174, polyclonal) and β-tubulin (ab6046, polyclonal).

COc1cc([C@@H]2c3cc4c(cc3[C@@H](OC3OC5COC(c6ccc[te]6)OC5C(O)C3O)[C@H]3COC(=O)C23)OCO4)cc(OC)c1O (some centres unmarked) [Compound 1, Tellurium-labelled teniposide]
loss of cell viability in PANC-1 cells (PANC-1 cells): almost complete loss of cell viability | levels of pH2AX^Ser139 relative to DMSO-treated control (pH2AX^Ser139): Increased levels
